In PubChem BioAssay (NCI):
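48-hour exposure; five concentrations; linearly interpolated endpoints. The concentration for 50% growth inhibition is given as GI50. The concentration for full growth arrest is given as TGI.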

Legend:
Test in all cases: NCI-60 cell line screen, 48 h
[1] = tested on: SW-620 colon
[2] = tested on: SK-MEL-2 melanoma
[3] = tested on: MALME-3M melanoma
[4] = tested on: OVCAR-8 ovarian
[5] = tested on: OVCAR-5 ovarian
[6] = tested on: K-562 leukemia
[7] = tested on: MOLT-4 leukemia
[8] = tested on: BT-549 breast
[9] = tested on: HS 578T breast
[10] = tested on: MDA-MB-435

SMILES	TGI [1]	TGI [2]	TGI [3]	TGI [4]	TGI [5]	TGI [6]	TGI [7]	GI50 [1]	GI50 [8]	TGI [8]	GI50 [4]	GI50 [5]	GI50 [6]	GI50 [9]	TGI [9]	GI50 [7]	GI50 [10]	TGI [10]	GI50 [2]	GI50 [3]
C[N+](C)(C)CC1CCCC/C1=N\O (stereo not drawn)	> 100 µM	> 100 µM	> 100 µM	> 100 µM	> 100 µM	> 100 µM	> 100 µM													
C#CCN(Cc1nc2cc(C(F)(F)F)ccc2nc1-c1ccccc1)c1ccc(F)c(F)c1	> 100 µM			> 100 µM	> 100 µM	> 100 µM	> 100 µM	36 µM	53.1 µM	> 100 µM	31.6 µM	> 100 µM	39.4 µM	45.5 µM	> 100 µM	30.3 µM	37.8 µM	> 100 µM		
C#CCN(C)C(=O)N(CC#C)N=O	> 100 µM	> 100 µM	> 100 µM	> 100 µM	> 100 µM	> 100 µM	> 100 µM													
Nc1nc(N)c(-c2ccccc2)c(CCC(=O)Nc2ccc(Cl)cc2)n1	> 100 µM	> 100 µM	> 100 µM	> 100 µM	> 100 µM	> 100 µM	> 100 µM													
CC(=O)O[C@H]1C=CC23OC(=O)[C@]1(C)[C@H]2[C@H](C(=O)O)C12CC(=O)[C@@](CO)(CC[C@H]13)C2	> 100 µM	> 100 µM		> 100 µM	> 100 µM	> 100 µM	> 100 µM													
OCC(O)C(OC1OC(CO)C(O)C(O)C1O)c1nn(-c2ccccc2)c2nc3cc(Cl)ccc3nc12 (stereo not drawn)			> 100 µM	> 100 µM	> 100 µM	> 100 µM	> 100 µM													
Cc1ccc(S(=O)OC23CC4CC(CC(C4)C2)C3)cc1 (stereo not drawn)	> 100 µM		> 100 µM	> 100 µM	> 100 µM	> 100 µM	> 100 µM													
CC1=C(C(=O)Nc2ccccc2)C(c2ccc(C(C)C)cc2)C(C(=O)Nc2ccccc2)=C(C)N1	41.5 µM	31.2 µM	30.2 µM	> 66.3 µM	38.5 µM	54.9 µM	57.5 µM													
Cn1cc(NC(=O)c2cc(NC(=O)CCCCCCC(=O)Nc3cc(C(=O)Nc4cc(C(=O)NCCC(=N)N)n(C)c4)n(C)c3)cn2C)cc1C(=O)NCCC(=N)N	> 100 µM		12.1 µM	43.2 µM	> 100 µM	> 100 µM														
COc1cc(-c2nn(-c3ccc(NC(=O)c4cc(Cl)cc(Cl)c4)cc3)cc2-c2ccncc2)ccc1Cl	> 100 µM	> 100 µM		> 100 µM	> 100 µM	> 100 µM	> 100 µM	> 100 µM	> 100 µM	> 100 µM	> 100 µM	> 100 µM	2.91 µM	3.29 µM	> 100 µM	4.83 µM	> 100 µM	> 100 µM	> 100 µM	
Cc1nnc(-c2ccc(-c3nc4ccccc4o3)cc2)o1	> 100 µM	> 100 µM		> 100 µM	> 100 µM	> 100 µM		> 100 µM	65.5 µM	> 100 µM	85.6 µM	44.8 µM	29.5 µM	95.1 µM	> 100 µM		> 100 µM	> 100 µM	> 100 µM	
Cc1sc2ncn(Cc3ccc(Cl)c(Cl)c3)c(=O)c2c1C	> 100 µM	> 100 µM		> 100 µM	79.7 µM	> 100 µM	> 100 µM	59.8 µM	58.9 µM	> 100 µM	50.8 µM	21.6 µM	5.4 µM	35.2 µM	> 100 µM	79.3 µM	8.72 µM	> 100 µM	27.7 µM	
CCOC(=O)NC(=O)c1c[nH]c(=O)[nH]c1=O	> 100 µM	> 100 µM	> 100 µM	> 100 µM	> 100 µM	> 100 µM	> 100 µM													
COC(=O)C1CC(C(=O)OC)c2nc3cc(C)c(C)cc3nc21 (stereo not drawn)	> 100 µM	> 100 µM	> 100 µM	> 100 µM	> 100 µM	> 100 µM	> 100 µM													
Nc1ccc(C(=O)N/C(=C\c2cccc([N+](=O)[O-])c2)c2nc3c4c(ccc3[nH]2)C(=O)c2ccccc2C4=O)cc1	> 100 µM	> 100 µM	> 100 µM	> 100 µM	> 100 µM	> 100 µM	> 100 µM													
CCOC(=O)/C(C#N)=C/Nc1ccc(-c2nc3ccccc3[nH]2)cc1	> 100 µM	> 100 µM		> 100 µM	> 100 µM	98.6 µM	> 100 µM	54.1 µM	34.1 µM	85.5 µM	> 100 µM	50.8 µM	25.1 µM	24.3 µM	79.5 µM	35.1 µM	33.8 µM	> 100 µM	42.6 µM	
CCCCOc1ccc(/C=N/Nc2cc(C)nc3ccc(Cl)cc23)cc1		3.43 µM	3.38 µM	3.46 µM	3.24 µM		3.61 µM		1.76 µM	3.43 µM	1.78 µM	1.82 µM				1.7 µM	1.73 µM	3.17 µM	1.85 µM	1.85 µM
COc1cc([C@@H]2c3cc4c(cc3C[C@H]3COC(=O)[C@@H]32)OCO4)cc2c1OCO2	> 100 µM	< 0.01 µM	> 100 µM		> 100 µM	> 40 µM	> 100 µM											< 0.01 µM		
C1C[OH+]CC[OH+]CC[OH+]CC[OH+]CC[OH+]CC[OH+]1.[Cl-].[Nb+5]	> 100 µM	> 100 µM	> 100 µM	> 100 µM		> 100 µM	> 100 µM	> 100 µM			> 100 µM		> 100 µM			> 100 µM			> 100 µM	> 100 µM
O=S(=O)(O)ONC1=NCCN1	> 100 µM	> 100 µM	> 100 µM	> 100 µM	> 100 µM	> 100 µM	> 100 µM	72.5 µM			> 100 µM	> 100 µM	> 100 µM	26.9 µM	> 100 µM	49.7 µM	> 100 µM	> 100 µM	> 100 µM	> 100 µM
